Experimental data published in paper PMC6207720, “Identification and antitumor activity of a novel inhibitor of the NIMA-related kinase NEK6” (Scientific Reports, 2018).

What was measured:
[1] = molecular target: T1, NEK6 (Homo sapiens, UniProt Q9HC98); test: LANCE-Ultra NEK6 kinase assay; assay type: biochemical; conditions: 100 µM ATP
T1 construct: purchased Carna 05-130
Protocol: The twenty-five compounds resulting from virtual screening were firstly tested for the ability to inhibit the enzymatic activity of NEK6 at a single concentration of 30 µM, using LANCE technology. Quercetin, able to inhibit a broad panel of kinase, was used as positive control of inhibition[12],[30]. This initial screening allowed the identification of two compounds determining >70% NEK6 inhibition at 30 µM, i.e. compound 8 (6-hydroxy-4-methyl-2-oxo-5-[(5-phenyl (2-furyl)) methylene] pyridine-3-carbonitrile), and 21 (6-amino-2-phenyl-5,7,9-triazatetracyclo[8.7.0.0^3,^8 0^11,^16]heptadeca-1(10),3(8),6,11,13,15 hexaene-4,17-dione) (Fig. 4). […] The possible binding mode of compound 8 in the ATP-binding site of NEK6 as well as nonbonded interactions across the complex interface are shown in Fig. 6. Compound 8 may use its phenyl ring and furyl ring to form hydrophobic Pi-alkyl interactions with Ala72 (strand β3), Ala125 (hinge region) and Val59 (strand β2) of the ATP binding site (Fig. 6B). […] This is particulary relevant when considering that C–H···O hydrogen bonds play an important role in the ligand-binding process[33]–[35].
Compounds (i.e. 1 to 25) (Molport, Riga, LV-1011, Latvia) were dissolved in DMSO 100% as 10 mM stock and stored at −20 C. Activity of the compounds as NEK6 inhibitors was tested using LANCE NEK6 Ultra Kinase Assays protocol (U-TRF #25 technical note, PerkinElmer, Monza, MB). Compounds were first tested at 30 µM and incubated with 4 nM NEK6 (Carna, Chuo-ku, Kobe, Japan, # 05-130), 50 nM ULight-p70 S6K Peptide (PerkinElmer # TRF0126) and 100 μM ATP (Sigma-Aldrich, Saint Louis, U.S.A, # A2383) at room temperature. Kinase reactions were terminated after 90 minutes by the addition of EDTA and the signal was read with the Enspire plate reader (PerkinElmer) in TR-FRET mode (excitation at 320 nm and emission at 665 nm) after 60 minutes. Inhibition of NEK6 activity was calculated as percentage with respect to the control sample (100% of activity). Quercetin was used as positive control (Molport). […] For each compound the dose inhibiting 50% of NEK6 activity (IC50) was calculated using the GraphPad Prism 5.0 Software (San Diego, CA, USA).

[2] = test system: PEO1 cells; test: Cell cycle analysis by flow cytometry; assay type: cell-based, human; conditions: 48 hours, compound at its IC50 concentration
Protocol: In order to assess whether the ability of compound 8 to inhibit cell proliferation was accounted for by cell cycle-related changes in cell division, we analysed the progression of PEO1 cells through the cell cycle by flow cytometry at 24, 48 and 72 hours from treatment. PEO1 was selected since, in our experimental conditions, was the cell line showing the highest sensitivity to 8. […] The effect was already measurable at the first experimental time point (24 h) and remained stable over time (Fig. 8).
PEO1 cell cycle perturbations induced by compound 8 (used at its IC50 concentration) were evaluated by standard flow cytometry methods. Briefly, at the end of each incubation period adherent cells were trypsinized, harvested and washed with cold phosphate-buffered saline several times. Cells were then counted, gently fixed in 70% v/v cold ethanol, adding the ethanol dropwise to the cell pellet while vortexing, and incubated at −20 °C for no longer than 7 days. Prior to DNA staining, fixed cells were spun down and treated with RNase (100 µg/ml) for 10 mins to ensure that only DNA was stained. 1 × 10^6/ml cells were then stained with propidium iodide (PI, 0.5 mg/ml) and stored at +4 °C overnight. The day after, stained cells were subjected to flow cytometry. Flow cytometry analysis was performed using the 6-parameter flow cytometer (2 scatter and 4 fluorescence signals) EPICS-XL (Beckman Coulter). A minimum of 30,000 cells of interest were acquired for each sample at a low flow rate (<200 events/sec). Analysis of cell cycle perturbation was performed by the ModFit LT software (Verity software house). Pulse shape processing was used to exclude cell doublets from the analysis.

T1 sequence (Q9HC98 whole entry): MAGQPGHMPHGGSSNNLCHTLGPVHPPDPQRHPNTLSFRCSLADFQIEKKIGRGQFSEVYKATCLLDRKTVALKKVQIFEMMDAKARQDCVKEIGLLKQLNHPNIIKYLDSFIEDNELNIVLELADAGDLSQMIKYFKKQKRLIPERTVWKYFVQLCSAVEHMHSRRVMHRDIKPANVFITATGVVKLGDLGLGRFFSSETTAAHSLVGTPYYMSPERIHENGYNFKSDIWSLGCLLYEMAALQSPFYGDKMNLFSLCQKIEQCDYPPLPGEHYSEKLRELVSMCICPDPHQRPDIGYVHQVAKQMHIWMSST

CC1=C(C#N)C(O)=NC(=O)/C1=C\c1ccc(-c2ccccc2)o1 [Compound 8, (5Z)-2-hydroxy-4-methyl-6-oxo-5-[(5-phenylfuran-2-yl)methylidene]-5,6-dihydropyridine-3-carbonitrile]
IC50 ([1]; LANCE-Ultra, mean ± SEM of 4 independent experiments): 3.4 ± 1.2 µM
inhibition at 30 µM ([1]; single concentration 30 µM, LANCE): > 70%
percentage of PEO1 cells in G0/G1 [2]: 61%
percentage of PEO1 cells in G2/M [2]: 16%
percentage of PEO1 cells in S [2]: 23%
